According to patent US8535696B2, “Treating eczema and/or psoriasis” (Lypanosys Pte Limited, priority 2000, dated 2013):

Legend:
[1] = Trials with patients using dosage forms of cetyl myristate alone or with cetyl palmitate; assay type: in vivo, human; conditions: variety of patients, cetyl myristate alone
[2] = laboratory experiments, www.gcinutrients.com; cited from earlier work

CCCCCCCCCCCCCCCCOC(=O)CCCCCCCCCCCCC [cetyl myristate]
relief from the symptoms of IBS and/or IBD [1]: favourable responses
anti-arthritic activity [2]: negligible
